The values below come from patent US10653688B2, “6-(6-membered heteroaryl and aryl)isoquinolin-3-yl carboxamides and preparation and use thereof” (Samumed, LLC, priority 2017, dated 2020).

Experiment [1] concerns the target recombinant GSK3β kinase (Homo sapiens (Human), UniProt P49841). Description: GSK3β kinase assay (Ser/Thr 09 peptide Z-lyte, FRET).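 Further: FRET read-out as coumarin over fluorescein emission ratio, compounds incubated one hour at room temperature, IC50 from dose-response curve fit.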 Format: biochemical.
Experiment [2] concerns the target recombinant DYRK1A kinase (Homo sapiens (Human), UniProt Q13627). Description: DYRK1A kinase assay (Ser/Thr 18 peptide Z-lyte, FRET).
Procedure: Each compound was dissolved in DMSO as a 10 mM stock and used to prepare compound source plates.
This is a non-radioactive assay using fluorescence resonance energy transfer (FRET) between coumarin and fluorescein to detect kinase activity which is represented as a ratio of coumarin emission/fluorescein emission.
The mixture was allowed to incubate with the representative compounds for one hour at room temperature. All reactions were performed in duplicate. Unphosphorylated (“0% Control”) and phosphorylated (“100% control”) forms of Ser/Thr 18 served as control reactions. Additionally, an 11-point dose-response curve of Staurosporine (luM top) was run to serve as a positive compound control.
After incubation, Development Reagent A was diluted in Development Buffer then added to the reaction and allowed to further incubate for one hour at room temperature.
Dose-response curves were generated and inhibitory concentration (IC50) values were calculated using non-linear regression curve fit in the Dotmatics' Studies Software (Bishops Stortford, UK).
The subject of experiment [3] is LL29 cells (primary human fibroblasts derived from IPF patients), α-smooth muscle actin. Description: Inhibition of fibrotic process: TGF-β1-treated primary human fibroblasts, αSMA staining.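 On all read-outs here: controls were TGF-β1-stimulated wells with DMSO vehicle as the positive reference and cells given DMSO alone as the negative reference.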 The experiment is classed as cell-based. As to conditions: for EC50: TGF-β1 20 ng/mL, 4 days, % cells positive for αSMA; for inhibition at 10 µM: read-out: percent inhibition at 10 μM (given for EC50 >10 μM), TGF-β1, αSMA, 10 μM.

Experiment [4] concerns IL-6 in human peripheral blood mononuclear cells (huPBMCs). Kind of experiment: IL-6 inhibition in LPS-stimulated human peripheral blood mononuclear cells (HTRF). As to conditions: for EC50: LPS 50 ng/mL, 22 hours, IL-6 HTRF; for inhibition at 10 µM: read-out: percent inhibition at 10 μM (given for EC50 >10 μM), LPS, IL-6, 10 μM. Format: cell-based. As for the experimental part:
Human Peripheral Blood Mononuclear Cells:
Fresh Normal PB MNC (Catalog # PB001, AllCells, Alameda, Calif.) were shipped overnight at 4° C. and resuspended in Roswell Park Memorial Institute (RPMI) 1640 Medium, with GlutaMAX Supplement (Catalog #61870127, ThermoFisher Scientific, Waltham, Mass.) supplemented with 1% Penicillin-Streptomycin (Catalog #15140163, ThermoFisher Scientific, Waltham, Mass.) and 1% fetal bovine serum (FBS) (Catalog #16140089, ThermoFisher Scientific, Waltham, Mass.) assay media.
Fresh normal human peripheral blood mononuclear cells (huPBMCs) were resuspended in 1% FBS-RPMI assay media with 1% Penicillin-Streptomycin 1% to a cell concentration of 1×10e6 cells/mL. […] 50 ng/mL of Lipopolysaccharides from Escherichia coli 0111:B4 (Catalog # L5293-2ML, Sigma-Aldrich, St. Louis, Mo.) was added after 2 hours and cells were incubated for another 22 hours at 37° C.-5% CO2. After 22 hour incubation, a mixture of anti-IL6 XL665 and anti-IL-6 Cryptate diluted in reconstitution buffer (Catalog #62IL6PEC, Cisbio Inc., Bedford, Mass.) was added to each well. Following incubation for 3 hours at room temperature, Homogeneous Time-Resolved Fluorescence (HTRF) was measured using the Envision (Perkin Elmer, Shelton, Conn.) at 665 nm and […]. The ratio of fluorescence at 665 nm to 620 nm was used as a readout for IL-6 quantification. All samples were processed in duplicate. Readings were normalized to DMSO treated cells and normalized activities were utilized for EC50 calculations. EC50 was determined using software generated by Dotmatics Limited (Windhill Bishops Stortford Herts, UK) using the Levenberg-Marquardt 4 parameter fitting procedure with finite different gradients.

Experiment [5] concerns Wnt activity (SW480 colon carcinoma cells stably expressing the Sp5-Luc reporter gene). Kind of experiment: Wnt activity screening assay (Sp5-Luc reporter gene assay). Format: cell-based, human. As to conditions: for EC50: 36 to 48 hours; for inhibition at 10 µM: read-out: percent inhibition at 10 μM (given for EC50 >10 μM), 10 μM. The text has this: The screening assay for Wnt activity is described as follows. Reporter cell lines can be generated by stably transducing cancer cell lines (e.g., colon cancer) or primary cells (e.g., IEC-6 intestinal cells) with a lentiviral construct that includes a Wnt-responsive promoter driving expression of the firefly luciferase gene.
SW480 colon carcinoma cells were transduced with a lentiviral vector expressing luciferase with a human Sp5 promoter consisting of a sequence of eight TCF/LEF binding sites. SW480 cells stably expressing the Sp5-Luc reporter gene and a hygromycin resistance gene were selected by treatment with 150 μg/mL of hygromycin for 7 days. These stably transduced SW480 cells were expanded in cell culture and used for all further screening activities. […] For Sp5-Luc reporter gene assays, the cells were plated at 4,000 cells/well in 384-well plates with a DMEM medium containing 1% fetal bovine serum, and 1% Penicillin-Streptomycin and incubated for 36 to 48 hours at 37° C. and 5% CO2. Following incubation, 15 μl of BriteLite Plus luminescence reagent (Perkin Elmer) was added to each well of the 384-well assay plates. The plates were placed on an orbital shaker for 2 min and then luminescence was quantified using the Envision (Perkin Elmer) plate reader. Readings were normalized to DMSO only treated cells, and normalized activities were utilized for EC50 calculations using the dose-response log (inhibitor) vs. response-variable slope (four parameters) nonlinear regression feature available in GraphPad Prism 5.0 (or Dotmatics).

Experiment [6] deals with SW480 colon carcinoma cells. Description: Cell viability assay (CellTiter-Glo). Format: cell-based, human. Conditions: for EC50: four days, CellTiter-Glo. As for the experimental part:
SW480 colon carcinoma cells were transduced with a lentiviral vector expressing luciferase with a human Sp5 promoter consisting of a sequence of eight TCF/LEF binding sites. SW480 cells stably expressing the Sp5-Luc reporter gene and a hygromycin resistance gene were selected by treatment with 150 μg/mL of hygromycin for 7 days. These stably transduced SW480 cells were expanded in cell culture and used for all further screening activities.
For the Cell Viability Assays, the cells were plated at 2,000 cells/well in 384-well plates with a DMEM medium containing 1% fetal bovine serum, and 1% Penicillin-Streptomycin and incubated for […] at 37° C. and 5% CO2. Eight replicates of DMSO-treated cells served as controls and cells treated with compound were performed in duplicate.
After incubation, 10 μL of CellTiter-Glo (Promega) was added to each well allowed to incubate for approximately 12 minutes. This reagent “results in cell lysis and generation of a luminescent signal proportional to the amount of ATP present. The amount of ATP is directly proportional to the number of cells present in culture, in agreement with previous reports. The CellTiter-Glo Assay generates a “glow-type” luminescent signal, produced by the luciferase reaction (Promega.com)”.
Background: In ATP-based viability assays light output follows the ATP content of the culture.

[7] abbreviates: GSK3β kinase, head says EC50, method says IC50, ATP 46 μM.
The mark [8] stands for this setting: DYRK1A kinase, head says EC50, method says IC50, ATP 30 μM.

Each structure is given as a SMILES string. Like-named read-outs stand apart in the source and are kept apart here.

The EC50 is the concentration that produces a half-maximal response. The inhibition is the drop in the measured response relative to a control, in per cent.

recombinant GSK3β kinase, sequence (P49841 whole entry): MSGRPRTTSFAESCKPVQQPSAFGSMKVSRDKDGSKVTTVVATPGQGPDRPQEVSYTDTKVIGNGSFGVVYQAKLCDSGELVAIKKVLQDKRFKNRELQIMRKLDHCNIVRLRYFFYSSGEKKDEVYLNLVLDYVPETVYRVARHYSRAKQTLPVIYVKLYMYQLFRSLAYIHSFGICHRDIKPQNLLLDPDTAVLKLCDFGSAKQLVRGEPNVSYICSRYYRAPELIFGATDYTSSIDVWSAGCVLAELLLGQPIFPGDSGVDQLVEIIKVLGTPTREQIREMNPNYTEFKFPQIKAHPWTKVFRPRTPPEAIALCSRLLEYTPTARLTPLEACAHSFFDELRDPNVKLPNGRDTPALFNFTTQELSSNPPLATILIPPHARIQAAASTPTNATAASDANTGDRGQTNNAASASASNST

In the case of `CN1CCN(c2cc(C(=O)Nc3cc4cc(-c5cc(N)cc(F)c5)ccc4cn3)ccn2)CC1` [Compound 1, N-(6-(3-Amino-5-fluorophenyl)isoquinolin-3-yl)-2-(4-methylpiperazin-1-yl) isonicotinamide], the EC50 in experiment [1] (setting [7]) is above 10000 nM; in experiment [2] (setting [8]) it was 75 nM; in experiment [3] (Homo sapiens, Fibroblast, 96 h), 2300 nM; in experiment [4] (Homo sapiens, PBMC), 7160 nM; in experiment [5] (Homo sapiens), 4010 nM; in experiment [6] (Homo sapiens, 96 h), 5860 nM.

With `CC(C)Nc1cc(F)cc(-c2ccc3cnc(NC(=O)c4ccnc(N5CCN(C)CC5)c4)cc3c2)c1` [Compound 2, N-(6-(3-Fluoro-5-(isopropylamino)phenyl)isoquinolin-3-yl)-2-(4-methylpiperazin-1-yl)isonicotinamide], the EC50 in experiment [1] (setting [7]) is above 10000 nM; in experiment [2] (setting [8]) it was 354 nM; in experiment [3] (Homo sapiens, Fibroblast, 96 h) it was 884 nM; in experiment [4] (Homo sapiens, PBMC), 1330 nM; in experiment [5] (Homo sapiens), 2050 nM; in experiment [6] (Homo sapiens, 96 h), 1380 nM.

With `CN1CCN(c2cc(C(=O)Nc3cc4cc(-c5ccccn5)ccc4cn3)ccn2)CC1` [Compound 4, 2-(4-Methylpiperazin-1-yl)-N-(6-(pyridin-2-yl)isoquinolin-3-yl) isonicotinamide], the EC50 was above 10000 nM in experiment [1]; 242 nM in experiment [2]; 3750 nM in experiment [3] (Homo sapiens, Fibroblast, 96 h); 6750 nM in experiment [4] (Homo sapiens, PBMC); above 10000 nM in experiment [5] (Homo sapiens); above 10000 nM in experiment [6] (Homo sapiens, 96 h). The inhibition at 10 µM was found to be 3.3% in experiment [5] (Homo sapiens) and 21.3% in experiment [6] (Homo sapiens, read-out: percent inhibition at 10 μM (given for EC50 >10 μM), 10 μM).

As to `CN1CCN(c2cc(C(=O)Nc3cc4cc(-c5ccncc5)ccc4cn3)ccn2)CC1` [Compound 5, 2-(4-Methylpiperazin-1-yl)-N-(6-(pyridin-4-yl)isoquinolin-3-yl) isonicotinamide], the EC50 in experiment [1] was above 10000 nM; in experiment [2] it was 18 nM; in experiment [3] (Homo sapiens, Fibroblast, 96 h), 2450 nM; in experiment [4] (Homo sapiens, PBMC), above 10000 nM; in experiment [5] (Homo sapiens) it was above 10000 nM; in experiment [6] (Homo sapiens, 96 h), 9460 nM. For the same compound, the inhibition at 10 µM was 4.1% in experiment [4] (Homo sapiens, PBMC) and 38.5% in experiment [5] (Homo sapiens).

Consider `CN1CCN(c2cc(C(=O)Nc3cc4cc(-c5cccnc5)ccc4cn3)ccn2)CC1` [Compound 13, 2-(4-Methylpiperazin-1-yl)-N-(6-(pyridin-3-yl)isoquinolin-3-yl) isonicotinamide], for which the concentration for a half-maximal effect (EC50) is above 10000 nM in experiment [1]; 3 nM in experiment [2]; 805 nM in experiment [3] (Homo sapiens, Fibroblast, 96 h); 2820 nM in experiment [4] (Homo sapiens, PBMC); 159 nM in experiment [5] (Homo sapiens); 324 nM in experiment [6] (Homo sapiens, 96 h).

On to `CN1CCN(c2cc(C(=O)Nc3cc4cc(-c5cncc(F)c5)ccc4cn3)ccn2)CC1` [Compound 24, N-(6-(5-Fluoropyridin-3-yl)isoquinolin-3-yl)-2-(4-methylpiperazin-1-yl) isonicotinamide], for which the EC50 was above 10000 nM in experiment [1] (setting [7]); 11 nM in experiment [2] (setting [8]); 2770 nM in experiment [3] (Homo sapiens, Fibroblast, 96 h); above 10000 nM in experiment [4] (Homo sapiens, PBMC); above 10000 nM in experiment [5] (Homo sapiens); 9520 nM in experiment [6] (Homo sapiens, 96 h). The inhibition at 10 µM was found to be 2.8% in experiment [4] (Homo sapiens, PBMC) and 20.2% in experiment [5] (Homo sapiens).

Turning to `CN1CCN(c2cc(C(=O)Nc3cc4cc(-c5cncc(Cl)c5)ccc4cn3)ccn2)CC1` [Compound 25, N-(6-(5-Chloropyridin-3-yl)isoquinolin-3-yl)-2-(4-methylpiperazin-1-yl) isonicotinamide], the EC50 in experiment [1] (setting [7]) was above 10000 nM; in experiment [2] (setting [8]) it was above 10000 nM; in experiment [3] (Homo sapiens, Fibroblast, 96 h), above 10000 nM; in experiment [4] (Homo sapiens, PBMC), above 10000 nM; in experiment [5] (Homo sapiens) it was above 10000 nM; in experiment [6] (Homo sapiens, 96 h), 8870 nM. For the same compound, the inhibition at 10 µM was 44.8% in experiment [3] (Homo sapiens, Fibroblast); 4.6% in experiment [4] (Homo sapiens, PBMC); 8.9% in experiment [5] (Homo sapiens).

As to `CN1CCN(CC(=O)Nc2cc3cc(-c4ccc(C(F)(F)F)nc4)ccc3cn2)CC1` [Compound 30, 2-(4-Methylpiperazin-1-yl)-N-(6-(6-(trifluoromethyl)pyridin-3-yl)isoquinolin-3-yl)acetamide], the EC50 is above 10000 nM in experiment [1] (setting [7]); above 10000 nM in experiment [2] (setting [8]); above 10000 nM in experiment [3] (Homo sapiens, Fibroblast, 96 h); above 10000 nM in experiment [4] (Homo sapiens, PBMC); 9690 nM in experiment [5] (Homo sapiens); 8700 nM in experiment [6] (Homo sapiens, 96 h). Further, the inhibition at 10 µM in experiment [3] (Homo sapiens, Fibroblast) was 24.9%; in experiment [4] (Homo sapiens, PBMC), 5.2%.

Consider `COc1cncc(-c2ccc3cnc(NC(=O)c4ccnc(N5CCN(C)CC5)c4)cc3c2)c1` [Compound 34, N-(6-(5-Methoxypyridin-3-yl)isoquinolin-3-yl)-2-(4-methylpiperazin-1-yl) isonicotinamide], for which the EC50 is above 10000 nM in experiment [1] (setting [7]); 4 nM in experiment [2] (setting [8]); 507 nM in experiment [3] (Homo sapiens, Fibroblast, 96 h); 2140 nM in experiment [4] (Homo sapiens, PBMC); 1040 nM in experiment [5] (Homo sapiens); 1190 nM in experiment [6] (Homo sapiens, 96 h).

Consider `O=C(Nc1cc2cc(-c3cncc(OC4CCNCC4)c3)ccc2cn1)c1ccc(F)cc1` [Compound 35, 4-Fluoro-N-(6-(5-(piperidin-4-yloxy)pyridin-3-yl)isoquinolin-3-yl) benzamide], for which the EC50 is above 10000 nM in experiment [1] (setting [7]); 10 nM in experiment [2] (setting [8]); 2800 nM in experiment [3] (Homo sapiens, Fibroblast, 96 h); 1010 nM in experiment [4] (Homo sapiens, PBMC); 1380 nM in experiment [5] (Homo sapiens); 1160 nM in experiment [6] (Homo sapiens, 96 h).

Take `CC(C)Nc1cncc(-c2ccc3cnc(NC(=O)C4CCN(CCF)CC4)cc3c2)n1` [Compound 89, 1-(2-Fluoroethyl)-N-(6-(6-(isopropylamino)pyrazin-2-yl)isoquinolin-3-yl) piperidine-4-carboxamide]: the EC50 in experiment [1] (setting [7]) was found to be 14 nM; in experiment [3] it was 3910 nM; in experiment [4], 390 nM; in experiment [5] it was 178 nM; in experiment [6], 447 nM.

Turning to `CC(C)CCN1CCC(C(=O)Nc2cc3cc(-c4cncc(NC(C)C)n4)ccc3cn2)CC1` [Compound 91, 1-Isopentyl-N-(6-(6-(isopropylamino)pyrazin-2-yl)isoquinolin-3-yl) piperidine-4-carboxamide], the EC50 in experiment [3] came out at 19 nM; in experiment [4], 446 nM; in experiment [5], 718 nM; in experiment [6] it was 6890 nM.
